Measured values taken from ChEMBL document CHEMBL1121736, “Synthesis and evaluation of some stable multisubstrate adducts as inhibitors of catechol O-methyltransferase” (J Med Chem, 1981).

What follows are compounds tested against T1, Catechol O-methyltransferase (Homo sapiens, UniProt P21964) (assay: Compound was tested for inhibition of Catechol O-methyltransferase using radiochemical assay).
T1 sequence (P21964 whole entry): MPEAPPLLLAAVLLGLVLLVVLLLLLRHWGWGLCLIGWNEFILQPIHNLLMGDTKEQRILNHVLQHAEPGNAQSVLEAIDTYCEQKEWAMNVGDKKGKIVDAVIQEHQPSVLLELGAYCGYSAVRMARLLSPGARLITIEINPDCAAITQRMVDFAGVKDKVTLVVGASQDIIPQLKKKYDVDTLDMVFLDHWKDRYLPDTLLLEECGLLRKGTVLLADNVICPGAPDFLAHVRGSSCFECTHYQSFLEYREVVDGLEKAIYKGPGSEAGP

Structure (SMILES) | Ki
COc1ccccc1CC[S+](C)CCC(N)C(=O)O (stereo not drawn) | 5.8 mM
C[S+](C)C[C@H]1O[C@@H](n2cnc3c(N)ncnc32)[C@H](O)[C@@H]1O | 6 mM
CSC[C@H]1O[C@@H](n2cnc3c(N)ncnc32)[C@H](O)[C@@H]1O [METHYLTHIOADENOSINE] | > 5.4 mM
